Legend:
[1] = test system: BaF3; test: Antiproliferative activity against mouse BaF3 cells harbouring CD74-NTRK1 fusion protein incubated for 3 days by CCK8 method; conditions: BaF3, 72 h
[2] = test system: BaF3; test: Antiproliferative activity against mouse BaF3 cells harbouring ETV6-NTRK3 fusion protein incubated for 3 days by CCK8 method; conditions: BaF3, 72 h
[3] = test system: BaF3; test: Antiproliferative activity against mouse BaF3 cells harbouring CD74-NTRK1 G595R mutant fusion protein incubated for 3 days by CCK8 method; type: functional, cell-based; conditions: BaF3, 72 h
[4] = test system: BaF3; test: Antiproliferative activity against mouse BaF3 cells harbouring TRKA-F589L fusion protein incubated for 3 days by CCK8 method; conditions: BaF3, 72 h
[5] = test system: BaF3; test: Antiproliferative activity against mouse BaF3 cells harbouring CD74-[…] mutant fusion protein incubated for 3 days by CCK8 method; type: functional, cell-based; conditions: BaF3, 72 h
[6] = test system: BaF3; test: Antiproliferative activity against mouse BaF3 cells harbouring wild type ETV6-TRKB incubated for 3 days by CCK8 method; conditions: BaF3, 72 h
[7] = test system: BaF3; test: Antiproliferative activity against mouse BaF3 cells harbouring CD74-TRKA G6678 mutant incubated for 3 days by CCK8 method; conditions: BaF3, 72 h
[8] = test system: BaF3; test: Antiproliferative activity against mouse BaF3 cells harbouring CD74-TRKA G667A mutant incubated for 3 days by CCK8 method; conditions: BaF3, 72 h
[9] = test system: BaF3; test: Antiproliferative activity against mouse BaF3 cells harbouring ETV6-TRKB G709C mutant incubated for 3 days by CCK8 method; conditions: BaF3, 72 h
[10] = test system: BaF3; test: Antiproliferative activity against mouse BaF3 cells harbouring ETV6-TRKC G696C mutant incubated for 3 days by CCK8 method; conditions: BaF3, 72 h
[11] = test system: BaF3; test: Antiproliferative activity against mouse BaF3 cells harbouring ETV6-TRKC G696A mutant incubated for 3 days by CCK8 method; conditions: BaF3, 72 h
[12] = test system: BaF3; test: Antiproliferative activity against mouse BaF3 cells harbouring ETV6-TRKC G6968 mutant incubated for 3 days by CCK8 method; conditions: BaF3, 72 h
[13] = test system: BaF3; test: Antiproliferative activity against mouse BaF3 cells harbouring ETV6-TRKB G639R mutant incubated for 3 days by CCK8 method; conditions: BaF3, 72 h
[14] = test system: BaF3; test: Antiproliferative activity against mouse BaF3 cells harbouring ETV6-TRKC G623E mutant incubated for 3 days by CCK8 method; conditions: BaF3, 72 h
[15] = test system: BaF3; test: Antiproliferative activity against mouse BaF3 cells harbouring ETV6-TRKC G623R mutant incubated for 3 days by CCK8 method; conditions: BaF3, 72 h
[16] = test system: BaF3; test: Antiproliferative activity against mouse BaF3 cells harbouring ETV6-TRKB F633L mutant incubated for 3 days by CCK8 method; conditions: BaF3, 72 h
[17] = test system: BaF3; test: Antiproliferative activity against mouse BaF3 cells harbouring ETV6-TRKC F617L mutant incubated for 3 days by CCK8 method; conditions: BaF3, 72 h
[18] = test system: BaF3; test: Antiproliferative activity against mouse BaF3 cells harbouring ETV6-TRKB V617M mutant incubated for 3 days by CCK8 method; conditions: BaF3, 72 h
[19] = test system: BaF3; test: Antiproliferative activity against mouse BaF3 cells harbouring ETV6-TRKC V601M mutant incubated for 3 days by CCK8 method; conditions: BaF3, 72 h
[20] = test system: BaF3; test: Antiproliferative activity against mouse BaF3 cells incubated for 3 days by CCK8 method; conditions: BaF3, 72 h
[21] = test system: BaF3; test: cells; conditions: Mus musculus, BaF3, 72 h
[22] = test system: BaF3; test: cells; conditions: Mus musculus, BaF3, 72 h; remark: listed apart in the source
[23] = test system: BaF3; test: cells; conditions: Mus musculus, BaF3, 72 h; remark: listed apart in the source
[24] = target: High affinity nerve growth factor receptor (Homo sapiens, UniProt P04629); test: Inhibition of N-terminal hexa his tagged TRKA (485 to 795 residues) (unknown origin) expressed in baculovirus expression system Sf9 cells using Ser/Thr 06 as peptide substrate incubated for 1 hr in presence of ATP by FRET based Z-LYTE assay
Sequence of High affinity nerve growth factor receptor (Homo sapiens, UniProt P04629) (P04629 whole entry, the tested form may be a part): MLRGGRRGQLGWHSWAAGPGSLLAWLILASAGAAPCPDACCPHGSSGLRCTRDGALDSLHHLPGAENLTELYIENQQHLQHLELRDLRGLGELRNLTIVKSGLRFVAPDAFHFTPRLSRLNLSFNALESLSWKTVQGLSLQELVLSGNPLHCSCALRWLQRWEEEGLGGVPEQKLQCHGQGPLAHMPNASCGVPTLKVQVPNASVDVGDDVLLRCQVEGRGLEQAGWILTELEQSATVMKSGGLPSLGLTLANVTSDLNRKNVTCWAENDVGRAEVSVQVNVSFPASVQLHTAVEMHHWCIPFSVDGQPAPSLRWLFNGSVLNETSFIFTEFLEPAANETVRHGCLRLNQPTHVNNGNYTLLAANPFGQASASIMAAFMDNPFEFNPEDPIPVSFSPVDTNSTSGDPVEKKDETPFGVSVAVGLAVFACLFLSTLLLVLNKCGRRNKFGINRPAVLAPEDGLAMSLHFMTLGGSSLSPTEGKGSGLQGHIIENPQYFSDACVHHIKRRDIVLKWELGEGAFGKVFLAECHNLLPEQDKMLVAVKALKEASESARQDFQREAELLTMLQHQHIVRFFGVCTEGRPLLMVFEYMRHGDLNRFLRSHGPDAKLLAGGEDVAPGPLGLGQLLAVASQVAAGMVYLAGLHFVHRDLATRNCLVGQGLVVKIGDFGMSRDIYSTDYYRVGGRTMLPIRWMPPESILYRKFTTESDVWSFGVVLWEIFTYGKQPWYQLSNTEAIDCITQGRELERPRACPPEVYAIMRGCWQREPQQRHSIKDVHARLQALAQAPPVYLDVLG

[25] = target: NT-3 growth factor receptor (Homo sapiens, UniProt Q16288); test: Inhibition of TRKC (unknown origin) using Ser/Thr 06 as peptide substrate incubated for 1 hr in presence of ATP by FRET based Z-LYTE assay
Sequence of NT-3 growth factor receptor (Q16288 whole entry): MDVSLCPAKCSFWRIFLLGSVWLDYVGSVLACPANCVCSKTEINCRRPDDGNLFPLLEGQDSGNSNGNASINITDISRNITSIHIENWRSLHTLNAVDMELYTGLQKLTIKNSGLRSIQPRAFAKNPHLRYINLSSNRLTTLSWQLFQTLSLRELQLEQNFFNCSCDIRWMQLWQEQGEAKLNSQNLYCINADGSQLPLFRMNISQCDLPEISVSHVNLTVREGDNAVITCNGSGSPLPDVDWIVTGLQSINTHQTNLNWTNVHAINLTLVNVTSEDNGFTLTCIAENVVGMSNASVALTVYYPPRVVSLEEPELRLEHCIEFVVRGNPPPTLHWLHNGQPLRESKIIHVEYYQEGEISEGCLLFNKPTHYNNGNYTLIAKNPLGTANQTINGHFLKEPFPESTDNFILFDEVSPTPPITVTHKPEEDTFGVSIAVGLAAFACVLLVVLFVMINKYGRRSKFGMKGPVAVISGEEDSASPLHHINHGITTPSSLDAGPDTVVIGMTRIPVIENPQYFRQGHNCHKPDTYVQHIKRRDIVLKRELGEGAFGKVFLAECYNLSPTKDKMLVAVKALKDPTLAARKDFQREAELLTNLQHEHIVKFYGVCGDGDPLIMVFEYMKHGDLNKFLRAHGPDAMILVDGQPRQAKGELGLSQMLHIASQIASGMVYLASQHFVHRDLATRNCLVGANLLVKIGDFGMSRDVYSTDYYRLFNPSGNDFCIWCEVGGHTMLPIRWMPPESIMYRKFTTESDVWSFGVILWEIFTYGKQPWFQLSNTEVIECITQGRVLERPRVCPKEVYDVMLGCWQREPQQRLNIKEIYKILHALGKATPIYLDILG

[26] = target: High affinity nerve growth factor receptor (Homo sapiens, UniProt P04629, G667C); test: Inhibition of TRKA G667C mutant (unknown origin) expressed in baculovirus expression system Sf9 cells using Ser/Thr 06 as peptide substrate incubated for 1 hr in presence of ATP by FRET based Z-LYTE assay
Sequence of High affinity nerve growth factor receptor (Homo sapiens, UniProt P04629, G667C) (P04629 33-796 G667C limits assumed): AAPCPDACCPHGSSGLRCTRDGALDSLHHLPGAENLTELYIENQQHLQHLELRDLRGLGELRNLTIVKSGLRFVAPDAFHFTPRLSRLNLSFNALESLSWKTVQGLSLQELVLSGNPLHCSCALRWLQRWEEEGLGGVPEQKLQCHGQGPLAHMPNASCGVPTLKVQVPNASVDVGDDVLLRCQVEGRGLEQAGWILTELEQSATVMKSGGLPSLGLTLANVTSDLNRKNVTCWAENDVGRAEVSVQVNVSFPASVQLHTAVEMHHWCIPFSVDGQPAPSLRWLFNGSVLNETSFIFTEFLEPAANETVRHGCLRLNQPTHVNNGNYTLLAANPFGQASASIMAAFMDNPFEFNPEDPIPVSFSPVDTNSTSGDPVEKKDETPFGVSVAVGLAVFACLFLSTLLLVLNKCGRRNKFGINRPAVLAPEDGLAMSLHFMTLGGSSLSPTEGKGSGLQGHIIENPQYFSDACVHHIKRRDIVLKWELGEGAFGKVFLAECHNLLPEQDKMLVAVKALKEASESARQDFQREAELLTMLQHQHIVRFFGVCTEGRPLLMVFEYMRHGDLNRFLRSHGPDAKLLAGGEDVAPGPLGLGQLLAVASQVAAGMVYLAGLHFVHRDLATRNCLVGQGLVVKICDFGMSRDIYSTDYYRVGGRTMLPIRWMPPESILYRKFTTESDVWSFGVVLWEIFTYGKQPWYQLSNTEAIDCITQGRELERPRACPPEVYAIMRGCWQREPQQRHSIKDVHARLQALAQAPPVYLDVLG

[27] = target: High affinity nerve growth factor receptor (Homo sapiens, UniProt P04629, G595R); test: Inhibition of TRKA G595R mutant (unknown origin) expressed in baculovirus expression system Sf9 cells using Ser/Thr 06 as peptide substrate incubated for 1 hr in presence of ATP by FRET based Z-LYTE assay
Sequence of High affinity nerve growth factor receptor (Homo sapiens, UniProt P04629, G595R) (P04629 33-796 G595R limits assumed): as the sequence (P04629 33-796 G667C limits assumed) above, with G563R, C635G counted along it

[28] = test system: BaF3; test: Antiproliferative activity against mouse BaF3 cells harbouring CD74-TRKA V573M mutant incubated for 3 days by CCK8 method; conditions: BaF3, 72 h

Row | SMILES | IC50 [1] | IC50 [2] | IC50 [3] | IC50 [4] | IC50 [21] | IC50 [24] | IC50 [25] | IC50 [26] | IC50 [27] | other results
1 | C[C@@H]1CCc2ncc(F)cc2[C@H]2CCCN2c2ccn3ncc(c3n2)C(=O)N1 [SELITRECTINIB] | 0.00135 µM | 0.00136 µM | 0.0103 µM | 0.0315 µM | 0.0222 µM | – | – | – | – | IC50 [5]: 0.0261 µM; IC50 [6]: 0.00232 µM; IC50 [7]: 0.037 µM; IC50 [8]: 0.00339 µM; IC50 [9]: 0.042 µM; IC50 [10]: 0.0482 µM; IC50 [11]: 0.00415 µM; IC50 [12]: 0.011 µM; IC50 [13]: 0.0411 µM; IC50 [14]: 0.00748 µM; IC50 [15]: 0.00508 µM; IC50 [16]: 0.0358 µM; IC50 [17]: 0.0172 µM; IC50 [18]: 0.0264 µM; IC50 [19]: 0.0307 µM; IC50 [20]: > 1 µM; IC50 [22]: > 1 µM; IC50 [23]: 0.423 µM
2 | Cc1c2cc(cc1C(=O)Nc1cc(C(C)(C)C)nn1-c1ccc(Cl)cc1)OCCCCCCCNC(=O)c1ccc3ncc(n3n1)C#C2 | 0.103 µM | 0.0702 µM | – | – | 0.0102 µM | 0.164 µM | 0.0135 µM | 0.0146 µM | > 1 µM | –
3 | Cc1c2cc(cc1C(=O)Nc1cc(Cl)cc(C(F)(F)F)c1)OCCCCCCCNC(=O)c1ccc3ncc(n3n1)C#C2 | – | – | – | – | – | 0.0398 µM | – | 0.00808 µM | > 1 µM | –
4 | Cc1cn(-c2cc(NC(=O)c3cc4cc(c3C)C#Cc3cnc5ccc(nn35)C(=O)NCCCCCCO4)cc(C(F)(F)F)c2)cn1 | 0.416 µM | 0.541 µM | – | – | 0.0172 µM | 0.0515 µM | 0.00945 µM | 0.0122 µM | 0.562 µM | –
5 | Cc1c2cc(cc1C(=O)Nc1cc(CN3CCCN(C)CC3)cc(C(F)(F)F)c1)OCCCCCCCNC(=O)c1ccc3ncc(n3n1)C#C2 | 0.00674 µM | 0.0484 µM | 0.0485 µM | 0.00868 µM | 0.00126 µM | 0.0102 µM | 0.00405 µM | 0.00279 µM | 0.039 µM | IC50 [5]: 0.0481 µM
6 | Cc1cn(-c2cc(NC(=O)c3cc4cc(c3C)C#Cc3cnc5ccc(nn35)NCCC(=O)NCCCCO4)cc(C(F)(F)F)c2)cn1 | – | – | – | – | – | 0.021 µM | – | 0.00529 µM | 0.0852 µM | –
7 | C[C@H]1CNC(=O)c2cnn3ccc(nc23)N[C@H](C)c2cc(F)ccc2O1 [REPOTRECTINIB] | 0.00139 µM | 0.0019 µM | – | 0.00161 µM | 0.0157 µM | – | – | – | – | IC50 [5]: 0.00332 µM; IC50 [6]: 0.00066 µM; IC50 [7]: 0.00812 µM; IC50 [8]: 0.00088 µM; IC50 [9]: 0.00944 µM; IC50 [10]: 0.017 µM; IC50 [11]: 0.00114 µM; IC50 [12]: 0.00459 µM; IC50 [13]: 0.0193 µM; IC50 [14]: 0.0054 µM; IC50 [15]: 0.00575 µM; IC50 [16]: 0.00215 µM; IC50 [17]: 0.00098 µM; IC50 [28]: 0.0123 µM; IC50 [18]: 0.0108 µM; IC50 [19]: 0.0231 µM; IC50 [20]: 0.892 µM; IC50 [22]: 0.159 µM; IC50 [23]: 0.0783 µM
8 | Cc1cn(-c2cc(NC(=O)c3cc4cc(c3C)C#Cc3cnc5ccc(nn35)NCCNC(=O)CCCCO4)cc(C(F)(F)F)c2)cn1 | 0.271 µM | 0.202 µM | > 1 µM | – | 0.0409 µM | 0.0248 µM | 0.00706 µM | 0.00821 µM | > 1 µM | –
9 | Cc1cn(-c2cc(NC(=O)c3cc4cc(c3C)C#Cc3cnc5ccc(nn35)C(=O)NCCCCCO4)cc(C(F)(F)F)c2)cn1 | 0.134 µM | 0.14 µM | – | – | 0.00854 µM | 0.0582 µM | 0.0203 µM | 0.124 µM | > 1 µM | –
10 | Cc1c2cc(cc1C(=O)Nc1cc(CN3CCN(C)CC3)cc(C(C)C)c1)OCCCCCCCNC(=O)c1ccc3ncc(n3n1)C#C2 | 0.0205 µM | 0.104 µM | 0.0423 µM | 0.0327 µM | 0.00385 µM | 0.00785 µM | 0.00283 µM | 0.0168 µM | 0.0107 µM | IC50 [5]: 0.0189 µM
11 | Cc1cn(-c2cc(NC(=O)c3cc4cc(c3C)C#Cc3cnc5ccc(nn35)C(=O)NCCCCCCCCO4)cc(C(F)(F)F)c2)cn1 | 0.0597 µM | 0.0322 µM | – | – | 0.00821 µM | 0.0634 µM | 0.0278 µM | 0.0075 µM | > 1 µM | –
12 | Cc1c2cc(cc1C(=O)Nc1cc(N3CCC(N4CCOCC4)CC3)cc(C(F)(F)F)c1)OCCCCCCCNC(=O)c1ccc3ncc(n3n1)C#C2 | 0.0511 µM | 0.0295 µM | 0.0677 µM | > 1 µM | 0.00378 µM | 0.0261 µM | 0.00851 µM | 0.00335 µM | 0.109 µM | –
13 | Cc1c2cc(cc1C(=O)Nc1ccc(CN3CCN(C)CC3)c(C(F)(F)F)c1)OCCCCCCCNC(=O)c1ccc3ncc(n3n1)C#C2 | 0.0321 µM | 3.03 µM | – | – | 0.00225 µM | 0.0151 µM | 0.0114 µM | 0.00355 µM | > 1 µM | –
14 | Cc1c2cc(cc1C(=O)Nc1cc(CN3CCN(C)CC3)cc(C(F)(F)F)c1)OCCCCCCCNC(=O)c1ccc3ncc(n3n1)C#C2 | – | – | – | – | – | 0.0157 µM | – | 0.00318 µM | 0.0548 µM | –
15 | Cc1c2cc(cc1NC(=O)Nc1ccc(Cl)c(C(F)(F)F)c1)OCCCCCCCNC(=O)c1ccc3ncc(n3n1)C#C2 | – | – | – | – | – | – | 0.0424 µM | – | – | –
16 | Cc1cn(-c2cc(NC(=O)c3cc4cc(c3C)C#Cc3cnc5ccc(nn35)NCCC(=O)N(C)CCCCO4)cc(C(F)(F)F)c2)cn1 | – | – | – | – | – | 0.0211 µM | – | 0.00583 µM | 0.0918 µM | –
17 | Cc1cn(-c2cc(NC(=O)c3cc4cc(c3C)C#Cc3cnc5ccc(nn35)NCCN(C)C(=O)CCCCO4)cc(C(F)(F)F)c2)cn1 | 0.0337 µM | 0.0171 µM | 0.172 µM | – | 0.00551 µM | 0.0174 µM | 0.00595 µM | 0.00747 µM | 0.123 µM | –
18 | Cc1c2cc(cc1C(=O)Nc1cc(CN3CCN(C)CC3)cc(C(C)(C)C)c1)OCCCCCCCNC(=O)c1ccc3ncc(n3n1)C#C2 | 0.0345 µM | 0.161 µM | 0.0656 µM | 0.0454 µM | 0.00596 µM | 0.019 µM | 0.00522 µM | 0.00306 µM | 0.0306 µM | IC50 [5]: 0.0122 µM
